“Also recorded” adds a separate entry of the source.
What was measured:
GsLDH [1] = molecular target: T1, GsLDH (Geobacillus stearothermophilus, UniProt P00344); assay: GsLDH kinetic studies; assay type: biochemical; conditions: WT GsLDH
GsLDH [2] = molecular target: T1, GsLDH; assay: Isothermal titration calorimetry of cofactor binding to GsLDH; conditions: for K B × 10^5 / TΔS B / ΔG B / ΔH B / binding stoichiometry n / Kd: presence of FBP; for K B × 10^5 / TΔS B / ΔG B / ΔH B / Kd: 30°C; for enthalpy change on titration of the enzyme: absence of FBP; for Kd: K d

T1 sequence (P00344 whole entry): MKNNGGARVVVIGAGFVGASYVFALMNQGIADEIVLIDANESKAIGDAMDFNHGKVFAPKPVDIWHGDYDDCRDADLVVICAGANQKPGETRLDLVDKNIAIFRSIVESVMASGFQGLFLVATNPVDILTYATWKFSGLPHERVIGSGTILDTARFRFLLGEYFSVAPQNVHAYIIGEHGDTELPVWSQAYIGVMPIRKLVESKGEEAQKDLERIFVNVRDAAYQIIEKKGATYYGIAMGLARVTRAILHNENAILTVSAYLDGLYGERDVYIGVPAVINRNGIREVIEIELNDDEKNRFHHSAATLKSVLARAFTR

| Molecule | fold decrease of K m for pyruvate in the presence of FBP (GsLDH [1]) [fold] | fold improvement of catalytic efficiency (k cat/K m) in the presence of FBP (GsLDH [1]) [fold] | K B × 10^5 (GsLDH [2]; WT) | TΔS B (GsLDH [2]; WT) [kcal/mol] | ΔG B (GsLDH [2]; WT) [kcal/mol] | ΔH B (GsLDH [2]; WT) [kcal/mol] | enthalpy change on titration of the enzyme (GsLDH [2]) | binding stoichiometry n (GsLDH [2]) | Kd (GsLDH [2]; WT with pyruvate) [µM] | Kd (GsLDH [2]; WT) [µM] | K B × 10^5 (GsLDH [2]; WT with pyruvate) | TΔS B (GsLDH [2]; WT with pyruvate) [kcal/mol] | ΔG B (GsLDH [2]; WT with pyruvate) [kcal/mol] | ΔH B (GsLDH [2]; WT with pyruvate) [kcal/mol] |
| --- | --- | --- | --- | --- | --- | --- | --- | --- | --- | --- | --- | --- | --- | --- |
| O=C(COP(=O)(O)O)[C@@H](O)[C@H](O)[C@H](O)COP(=O)(O)O [FBP, fructose 1,6‐bisphosphate] | 5.6 | 3.3 | – | – | – | – | – | – | – | – | – | – | – | – |
| reduced nicotinamide adenine dinucleotide [NADH] | – | – | 8 ± 2 10^5 M^−1 | -50.8 | -8.2 | -59 ± 4 | did not result in significant enthalpy changes; also recorded: too low to be detected | ~1 | – | – | – | – | – | – |
| NC(=O)c1ccc[n+]([C@@H]2O[C@H](COP(=O)([O-])OP(=O)(O)OC[C@H]3O[C@@H](n4cnc5c(N)ncnc54)[C@H](O)[C@@H]3O)[C@@H](O)[C@H]2O)c1 [NAD^+, oxidized nicotinamide adenine dinucleotide] | – | – | 3 ± 2 10^5 M^−1 | -134.4 | -7.6 | -142 ± 20 | did not result in significant enthalpy changes | ~1 | 1.6 | 3 | 6 ± 2 10^5 M^−1 | -37.0 | -8.0 | -45 ± 2 |

Source: article PMC12197871 (Protein Science : A Publication of the Protein Society, 2025)
